Measurements reported in PubChem BioAssay (NCI).
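48-hour exposure; five concentrations; linearly interpolated endpoints. TGI denotes the concentration required for complete inhibition of growth.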

Legend:
Test in all cases: growth of human tumour cells (NCI), 48 h
[1] = system: HCT-15 colon
[2] = system: IGROV1 ovarian
[3] = system: MDA-MB-231 breast
[4] = system: KM12 colon
[5] = system: U251 CNS
[6] = system: K-562 leukemia
[7] = system: SK-MEL-28 melanoma
[8] = system: HOP-92 NSCLC
[9] = system: NCI/ADR-RES ovarian
[10] = system: SF-268 CNS
[11] = system: SK-OV-3 ovarian
[12] = system: LOX IMVI melanoma
[13] = system: SK-MEL-5 melanoma
[14] = system: CAKI-1 renal
[15] = system: HCT-116 colon
[16] = system: SK-MEL-2 melanoma
[17] = system: SW-620 colon
[18] = system: BT-549 breast
[19] = system: SNB-75 CNS
[20] = system: A549 NSCLC
[21] = system: COLO 205 colon
[22] = system: SN12C renal
[23] = system: TK-10 renal
[24] = system: EKVX NSCLC
[25] = system: OVCAR-4 ovarian
[26] = system: SNB-19 CNS
[27] = system: NCI-H226 lung
[28] = system: NCI-H23 lung
[29] = system: SR leukemia
[30] = system: 786-0 renal
[31] = system: HT29 colon
[32] = system: M14 melanoma
[33] = system: CCRF-CEM leukemia
[34] = system: SF-295 CNS
[35] = system: UO-31 renal
[36] = system: OVCAR-8 ovarian
[37] = system: NCI-H460 lung
[38] = system: OVCAR-3 ovarian
[39] = system: A498 renal
[40] = system: HOP-62 NSCLC
[41] = system: MDA-MB-435
[42] = system: ACHN renal
[43] = system: MCF7 breast
[44] = system: DU-145 prostate
[45] = system: HCC-2998 colon
[46] = system: MDA-N
[47] = system: UACC-62 melanoma
[48] = system: MOLT-4 leukemia
[49] = system: PC-3 prostate
[50] = system: RPMI-8226 leukemia
[51] = system: T-47D breast
[52] = system: OVCAR-5 ovarian
[53] = system: UACC-257 melanoma
[54] = system: HS 578T breast
[55] = system: RXF 393 renal
[56] = system: SF-539 CNS
[57] = system: NCI-H522 lung

Work on `COc1ccc(-n2cnc3c(NC(C)(C)C(=O)O)ncnc32)cc1` yielded a TGI [1] of over 100 µM, a TGI [2] of over 100 µM and a TGI [3] of over 100 µM. For the same compound, the TGI [4] was over 100 µM, the TGI [5] was over 100 µM and the TGI [6] was over 100 µM. It also gave a TGI [7] of over 100 µM, a TGI [8] of over 100 µM and a TGI [9] of over 100 µM. It also gave a TGI [10] of over 100 µM, a TGI [11] of over 100 µM and a TGI [12] of over 100 µM. The TGI [13] was over 100 µM, the TGI [14] was over 100 µM and the TGI [15] was over 100 µM. For the same compound, the TGI [16] was over 100 µM, the TGI [17] was over 100 µM and the TGI [18] was over 100 µM. It also gave a TGI [19] of over 100 µM, a TGI [20] of over 100 µM and a TGI [21] of over 100 µM. It also gave a TGI [22] of over 100 µM, a TGI [23] of over 100 µM and a TGI [24] of over 100 µM. The TGI [25] was over 100 µM, the TGI [26] was over 100 µM and the TGI [27] was over 100 µM. The TGI [28] was over 100 µM, the TGI [29] was over 100 µM and the TGI [30] was over 100 µM. The TGI [31] was over 100 µM, the TGI [32] was over 100 µM and the TGI [33] was over 100 µM. For the same compound, the TGI [34] was over 100 µM, the TGI [35] was over 100 µM and the TGI [36] was over 100 µM. The TGI [37] was over 100 µM, the TGI [38] was over 100 µM and the TGI [39] was over 100 µM. The TGI [40] was over 100 µM, the TGI [41] was over 100 µM and the TGI [42] was over 100 µM. For the same compound, the TGI [43] was over 100 µM, the TGI [44] was over 100 µM and the TGI [45] was over 100 µM. It also gave a TGI [46] of over 100 µM, a TGI [47] of over 100 µM and a TGI [48] of over 100 µM. For the same compound, the TGI [49] was over 100 µM, the TGI [50] was over 100 µM and the TGI [51] was over 100 µM. For the same compound, the TGI [52] was over 100 µM, the TGI [53] was over 100 µM and the TGI [54] was over 100 µM.

For `Cc1ccnc2nc3[nH]c4ccccc4c3cc12`, the TGI [1] was over 100 µM, the TGI [2] was over 100 µM and the TGI [3] was over 100 µM. It also gave a TGI [4] of over 100 µM, a TGI [55] of over 100 µM and a TGI [5] of over 100 µM. For the same compound, the TGI [6] was over 100 µM, the TGI [8] was over 100 µM and the TGI [9] was over 100 µM. The TGI [10] was over 100 µM, the TGI [12] was over 100 µM and the TGI [13] was over 100 µM. It also gave a TGI [14] of over 100 µM, a TGI [15] of over 100 µM and a TGI [16] of over 100 µM. The TGI [17] was over 100 µM, the TGI [18] was over 100 µM and the TGI [19] was 85.8 µM. It also gave a TGI [20] of over 100 µM, a TGI [21] of over 100 µM and a TGI [22] of over 100 µM. It also gave a TGI [23] of over 100 µM, a TGI [24] of over 100 µM and a TGI [56] of over 100 µM. It also gave a TGI [25] of over 100 µM, a TGI [27] of over 100 µM and a TGI [28] of over 100 µM. It also gave a TGI [29] of over 100 µM, a TGI [30] of 83.7 µM and a TGI [31] of over 100 µM. It also gave a TGI [32] of over 100 µM, a TGI [33] of over 100 µM and a TGI [34] of over 100 µM. It also gave a TGI [35] of over 100 µM, a TGI [36] of over 100 µM and a TGI [37] of over 100 µM. For the same compound, the TGI [38] was over 100 µM, the TGI [39] was over 100 µM and the TGI [40] was over 100 µM. For the same compound, the TGI [41] was over 100 µM, the TGI [42] was over 100 µM and the TGI [43] was over 100 µM. For the same compound, the TGI [44] was over 100 µM, the TGI [45] was over 100 µM and the TGI [46] was over 100 µM. It also gave a TGI [47] of over 100 µM, a TGI [48] of over 100 µM and a TGI [57] of over 100 µM. It also gave a TGI [49] of over 100 µM, a TGI [50] of over 100 µM and a TGI [51] of over 100 µM. The TGI [52] was over 100 µM, the TGI [53] was over 100 µM and the TGI [54] was over 100 µM.
